According to US20250100988A1, “PREPARATION OF A COMPOUND FOR THE TREATMENT OF GOUT OR HYPERURICEMIA” (Arthrosi Therapeutics, Inc., priority 2021, published 2025):

Assay: Solubility of test articles in HBSS assay buffer
Conditions: at all tested concentrations; highest tested concentration 10 μM
Description: Before the experiment, the medium was removed and the cells were washed twice with 100 μL of HBSS without Cl^−. Uptake experiments were carried out at 37±1° C. in 50 μL of HBSS without Cl^−, pH 7.4 containing the probe substrate (20 μM uric acid) and the test article (TA) or solvent.

Row | Structure (SMILES) | solubility in HBSS buffer
1 | CCc1oc2ccccc2c1C(=O)c1cc(Br)c(O)c(Br)c1 [Benzbromarone] | soluble
2 | [2H]c1c([2H])c([2H])c2c(C(=O)c3cc(Br)c(O)c(Br)c3)c(C(C)O)oc2c1[2H] (centres unmarked) [Compound 1, (3,5-dibromo-4-hydroxyphenyl)(2-(1-hydroxyethyl)benzofuran-3-yl-4,5,6,7-d4)methanone] | soluble
